Measurements from PMC6021035, “Insights into biological activity of ureidoamides with primaquine and amino acid moieties” (Journal of Enzyme Inhibition and Medicinal Chemistry, 2018).
Like-named read-outs stand apart in the source and are kept apart here. Marks after values point to notes of the source that are not given here.

Columns and labels:
[1] = Inhibition of linoleic acid peroxidation (LP), AAPH-initiated; design: tested at 100 µM; conditions: 100 μΜ, 37 °C
Procedure: To initiate lipid peroxidation, the free radical AAPH was used[10]. The final solution in the UV cuvette consisted of 10 µl sodium linoleate solution (c = 16 mM) and 0.93 ml phosphate buffer pH 7.4 (c = 50 mM). Afterwards, 10 µl of the tested compound solution in DMSO (final concentration 0.1 mM) and 50 µl of AAPH solution (c = 40 mM) were added. The experiment was performed at 37 °C under air. Oxidation of linoleic acid sodium salt was monitored at 234 nm. The assay was repeated at least in triplicate and the standard deviation of absorbance was less than 10% of the mean. Trolox was used under the same experimental conditions as a reference compound.

[2] = Interaction with 1,1-diphenyl-2-picrylhydrazyl (DPPH); conditions: 100 μΜ
Procedure: To a solution of DPPH in absolute ethanol, an appropriate volume of the tested compound solution (0.1 mM final concentration) dissolved in DMSO was added. Absorbance was recorded at 517 nm after 20 and 60 min at room temperature (Lambda 20 double beam spectrophotometer, Perkin-Elmer, UK). Experiments were repeated at least in triplicate and the standard deviation of absorbance was less than 10% of the mean[10]. NDGA was used under the same experimental conditions as a reference compound.

[3] = In vitro haemolytic activity; format: cell-based; conditions: male, 4% human erythrocytes, read-out: Haemolysis (%); for hemolysis at 1 h, 50 µg/ml: pH 7, 50 μg/ml; for hemolysis at 1 h, 100 µg/ml: pH 7, 100 μg/ml; for hemolysis at 1 h, 200 µg/ml: pH 7, 200 μg/ml
Procedure: Then, 4% (v/v) of fresh human erythrocyte solution (hErc) was prepared using a PBS pH 7.0 solution. A series of diluted compounds from 200 to 50 µg/ml were prepared in a total volume of 1 ml with hErc solution. […] Absorbance of the supernatant (200 µl) was recorded at 540 nm using an iEMS microplate reader. The 0.1% (v/v) solution of Triton X100 served as a positive control (as total lysis of hErc), and intact hErc served as a negative control. […] All tests were performed in triplicate and the results were expressed as haemolysis percentage (mean ± SD). Percentage of haemolysis was calculated using the following equation: haemolysis %=Asample-Anc/Apc-Anc×100 where Asample was absorbance of the tested compound, Anc was absorbance of the negative control (intact hErc) and Apc was absorbance of the positive control treated with 0.1% TritonX100. In statistical calculations, p values below 0.05 were considered significant throughout the test. For comparison of mean values, one-way ANOVA with Dunnet’s post-test was used.

[4] = target: T1, soybean lipoxygenase (LOX) (Glycine max, UniProt P08170); assay: In vitro soybean lipoxygenase (LOX) inhibition; format: biochemical; conditions: for IC50: sodium linoleate 0.1 mM, read-out: LOX inhibition (IC50 μM) ± SD
T1 construct: purchased Sigma-Aldrich
T1 sequence (P08170 1-839): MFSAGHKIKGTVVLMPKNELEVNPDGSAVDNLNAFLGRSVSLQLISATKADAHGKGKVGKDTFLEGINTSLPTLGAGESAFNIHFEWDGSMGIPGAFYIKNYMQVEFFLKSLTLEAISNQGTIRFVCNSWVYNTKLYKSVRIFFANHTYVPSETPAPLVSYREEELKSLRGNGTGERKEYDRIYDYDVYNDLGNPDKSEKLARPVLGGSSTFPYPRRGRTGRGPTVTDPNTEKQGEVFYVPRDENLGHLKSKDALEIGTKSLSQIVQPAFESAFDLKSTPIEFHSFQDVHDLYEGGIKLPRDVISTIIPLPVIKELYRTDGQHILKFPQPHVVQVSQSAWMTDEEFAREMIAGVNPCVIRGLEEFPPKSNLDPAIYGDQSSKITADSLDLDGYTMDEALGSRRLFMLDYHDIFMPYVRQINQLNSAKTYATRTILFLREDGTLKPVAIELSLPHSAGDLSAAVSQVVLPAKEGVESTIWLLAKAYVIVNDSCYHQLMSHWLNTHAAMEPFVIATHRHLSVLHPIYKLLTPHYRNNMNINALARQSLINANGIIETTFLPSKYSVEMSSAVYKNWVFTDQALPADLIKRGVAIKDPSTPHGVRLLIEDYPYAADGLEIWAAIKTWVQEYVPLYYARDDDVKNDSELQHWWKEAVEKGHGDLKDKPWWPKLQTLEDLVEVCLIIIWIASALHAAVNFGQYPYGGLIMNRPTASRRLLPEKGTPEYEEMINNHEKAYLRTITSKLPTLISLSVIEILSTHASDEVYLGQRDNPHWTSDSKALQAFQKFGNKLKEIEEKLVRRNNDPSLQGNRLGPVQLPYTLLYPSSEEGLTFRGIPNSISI
Procedure: In vitro LOX inhibition assay was accomplished as described previously. Test compounds (stock solutions 10 mM in DMSO) were incubated at room temperature with sodium linoleate (0.1 mM) and 0.2 ml of LOX solution (0.1 mg in 10 ml saline). Conversion of sodium linoleate to 13-hydroperoxylinoleic acid was measured at 234 nm and compared to the reference inhibitor. Several concentrations were used for IC50 determination.

[5] = tested on: Candida albicans ATCC 90028; assay: Minimum biofilm eradication assay; format: cell-based; conditions: ATCC90028, 48 h, read-out: MBEC
[6] = tested on: Candida albicans ATCC 10231; assay: Minimum biofilm eradication assay; format: cell-based; conditions: ATCC10231, 48 h, read-out: MBEC
[7] = 4% (v/v) fresh human erythrocyte suspension

| SMILES | IC50 [4] [µM] | melting point [°C] | LOX inhibition, per cent ([4]; 100 μΜ (footnotes a, c)) | LP inhibition (%) ± SD [1] [%] | DPPH-reducing ability 20 min [2] | DPPH-reducing ability 60 min [2] | hemolysis at 1 h, 50 µg/ml [3, 7] [%] | hemolysis at 1 h, 100 µg/ml [3, 7] [%] | hemolysis at 1 h, 200 µg/ml [3, 7] [%] | minimal effective concentration [5] [µg/mL] | minimal effective concentration [6] [µg/mL] | hemolysis at 1 h, 50 µg/ml [3] [%] | hemolysis at 1 h, 100 µg/ml [3] [%] | hemolysis at 1 h, 200 µg/ml [3] [%] |
| --- | --- | --- | --- | --- | --- | --- | --- | --- | --- | --- | --- | --- | --- | --- |
| COc1cc(NC(C)CCCNC(=O)NC(C(=O)NC(c2ccccc2)c2ccc(Cl)cc2)c2ccccc2)c2ncccc2c1 (centres unmarked) [Compound 5c, N-[(4-chlorophenyl)(phenyl)methyl]-2-[({4-[(6-methoxyquinolin-8-yl)amino]pentyl}carbamoyl)amino]-2-phenylacetamide] | 40 ± 1.5 |  |  | 99 ± 2.8 | 2^b % | 2^b % | 3.06 ± 0.05 | 4.26 ± 0.07 | 4.89 ± 0.13 | 25 | 50 |  |  |  |
| COc1cc(NC(C)CCCN)c2ncccc2c1 (centres unmarked) [PQ, 8-[(4-amino-1-methylbutyl)amino]-6-methoxyquinoline, reference compound] |  |  |  |  |  |  |  |  |  | > 100 | > 100 | 2.08 ± 0.05 | 2.53 ± 0.04 | 3.12 ± 0.07 |
| COc1cc(NC(C)CCCNC(=O)NC(C(=O)NC(c2ccccc2)c2ccc(Cl)cc2)c2ccc(Cl)cc2)c2ncccc2c1 (centres unmarked) [Compound 5e, 2–(4-chlorophenyl)-N-[(4-chlorophenyl)(phenyl)methyl]-2-[({4-[(6-methoxyquinolin-8-yl)amino]pentyl}carbamoyl)amino]acetamide] | 56 ± 2.3 | 150 to 151.5 |  | 80 ± 2.7 | 1^b % | 1^b % | 2.78 ± 0.04 | 3.23 ± 0.05 | 3.7 ± 0.08 | 25 | 25 |  |  |  |
| COc1cc(NC(C)CCCNC(=O)NC(CC(C)C)C(=O)NC(c2ccccc2)c2ccccc2)c2ncccc2c1 (centres unmarked) [Compound 5a, N-(diphenylmethyl)-2-[({4-[(6-methoxyquinolin-8-yl)amino]pentyl}carbamoyl)amino]-4-methylpentanamide] |  | 184.5 to 185.5 | 40.0 ± 1.0^a^,^c per cent | 15 ± 0.7 | 6^b % | 5^b % | 3.14 ± 0.04 | 4.03 ± 0.03 | 4.24 ± 0.07 | 25 | > 100 |  |  |  |
| COc1cc(NC(C)CCCNC(=O)NC(C(=O)N(C)C(c2ccccc2)c2ccccc2)c2ccccc2)c2ncccc2c1 (centres unmarked) [Compound 5b, N-(diphenylmethyl)-2-[({4-[(6-methoxyquinolin-8-yl)amino]pentyl}carbamoyl)amino]-N-methyl-2-phenylacetamide] | 69 ± 2 |  |  | 92 ± 3.2 | 7^b % | 5^b % | 3.13 ± 0.05 | 3.94 ± 0.05 | 4.04 ± 0.08 | 50 | 50 |  |  |  |

Second part, led by results:

| IC50 [4] [µM] | melting point [°C] | LOX inhibition, per cent ([4]; 100 μΜ (footnotes a, c)) | SMILES | LP inhibition (%) ± SD [1] [%] | DPPH-reducing ability 20 min [2] | DPPH-reducing ability 60 min [2] | hemolysis at 1 h, 50 µg/ml [3, 7] [%] | hemolysis at 1 h, 100 µg/ml [3, 7] [%] | hemolysis at 1 h, 200 µg/ml [3, 7] [%] | minimal effective concentration [5] [µg/mL] | minimal effective concentration [6] [µg/mL] | hemolysis at 1 h, 50 µg/ml [3] [%] | hemolysis at 1 h, 100 µg/ml [3] [%] | hemolysis at 1 h, 200 µg/ml [3] [%] |
| --- | --- | --- | --- | --- | --- | --- | --- | --- | --- | --- | --- | --- | --- | --- |
| 67.5 ± 1.1 |  |  | COc1ccc(C(=NNC(=O)C(NC(=O)NCCCC(C)Nc2cc(OC)cc3cccnc23)c2ccc(Cl)cc2)c2ccccc2)cc1 (centres unmarked) [Compound 5f, 3-[(4-chlorophenyl)({N'-[(4-methoxyphenyl)(phenyl)methylidene]hydrazinecarbonyl})methyl]-1-{4-[(6-methoxyquinolin-8-yl)amino]pentyl}urea] | 90 ± 3.6 | 2^b % | 2^b % | 3.32 ± 0.05 | 3.66 ± 0.05 | 4.03 ± 0.09 | 25 | 25 |  |  |  |
| 41.5 ± 3.1 | 180 to 183 |  | COc1cc(NC(C)CCCNC(=O)NC(C(=O)NC(c2ccccc2)c2ccccc2)c2ccc(Cl)cc2)c2ncccc2c1 (centres unmarked) [Compound 5d, 2–(4-chlorophenyl)-N-(diphenylmethyl)-2-[({4-[(6-methoxyquinolin-8-yl)amino]pentyl}carbamoyl)amino]acetamide] | 90 ± 4.5 | 1^b % | 2^b % | 2.56 ± 0.05 | 2.94 ± 0.04 | 3.07 ± 0.05 | 25 | 50 |  |  |  |
